Data on five compounds can be found in ChEMBL document CHEMBL5465560, “Selectivity Literature for EUbOPEN Chemogenomic Library” (2024).

Assay [1] has as its system Receptor-type tyrosine-protein kinase FLT3 (Homo sapiens), P36888 [UNDEFINED MUTATION]. Put plainly: Selectivity interaction (KinomeScan (DiscoverX)) EUB0001079a FLT3. To be noted: at 1 µM.
In assay [2] the target is T1, Serine/threonine-protein kinase tousled-like 1 (Homo sapiens) (UniProt Q9UKI8).
T1 sequence (whole entry): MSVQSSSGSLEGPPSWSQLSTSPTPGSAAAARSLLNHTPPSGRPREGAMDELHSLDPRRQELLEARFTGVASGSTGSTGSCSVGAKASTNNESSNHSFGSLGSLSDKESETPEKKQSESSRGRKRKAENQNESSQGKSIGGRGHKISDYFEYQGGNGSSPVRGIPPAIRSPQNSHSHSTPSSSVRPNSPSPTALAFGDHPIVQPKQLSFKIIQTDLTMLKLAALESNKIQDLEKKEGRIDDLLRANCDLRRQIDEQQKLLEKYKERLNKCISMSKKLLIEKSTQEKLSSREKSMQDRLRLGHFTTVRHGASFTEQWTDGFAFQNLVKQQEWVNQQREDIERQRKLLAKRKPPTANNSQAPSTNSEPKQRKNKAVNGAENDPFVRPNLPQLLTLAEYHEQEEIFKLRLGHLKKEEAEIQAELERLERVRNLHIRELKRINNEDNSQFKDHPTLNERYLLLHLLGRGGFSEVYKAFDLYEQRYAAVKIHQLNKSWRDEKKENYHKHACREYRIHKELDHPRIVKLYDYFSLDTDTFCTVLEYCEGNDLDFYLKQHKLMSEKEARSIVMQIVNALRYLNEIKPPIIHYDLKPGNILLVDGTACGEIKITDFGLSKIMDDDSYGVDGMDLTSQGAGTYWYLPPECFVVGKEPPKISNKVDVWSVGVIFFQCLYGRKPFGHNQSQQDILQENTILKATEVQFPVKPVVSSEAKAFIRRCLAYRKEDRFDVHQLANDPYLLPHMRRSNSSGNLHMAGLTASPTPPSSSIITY
Put plainly: Selectivity interaction (KinomeScan (DiscoverX)) EUB0001619a TLK1. As to conditions: at 1 µM.

In assay [3] the target is Serine/threonine-protein kinase MARK2 (Homo sapiens) (UniProt Q7KZI7). Put plainly: (§1) Selectivity interaction (ActivX KiNativ screen (kinase selectivity in THP-1 cell lysates)) EUB0000639a MARK2. The assay is classed as subcellular. As to conditions: lysate, at 1 µM.
In assay [4] the target is MAP kinase-interacting serine/threonine-protein kinase 2 (Homo sapiens, UniProt Q9HBH9). Put plainly: Selectivity interaction (Kinase panel (Invitrogen)) EUB0000639a MKNK2. As to conditions: at 200 nM.
Assay [5] has as its target T2, Inhibitor of nuclear factor kappa-B kinase subunit epsilon (Homo sapiens) (UniProt Q14164).
T2 sequence (whole entry): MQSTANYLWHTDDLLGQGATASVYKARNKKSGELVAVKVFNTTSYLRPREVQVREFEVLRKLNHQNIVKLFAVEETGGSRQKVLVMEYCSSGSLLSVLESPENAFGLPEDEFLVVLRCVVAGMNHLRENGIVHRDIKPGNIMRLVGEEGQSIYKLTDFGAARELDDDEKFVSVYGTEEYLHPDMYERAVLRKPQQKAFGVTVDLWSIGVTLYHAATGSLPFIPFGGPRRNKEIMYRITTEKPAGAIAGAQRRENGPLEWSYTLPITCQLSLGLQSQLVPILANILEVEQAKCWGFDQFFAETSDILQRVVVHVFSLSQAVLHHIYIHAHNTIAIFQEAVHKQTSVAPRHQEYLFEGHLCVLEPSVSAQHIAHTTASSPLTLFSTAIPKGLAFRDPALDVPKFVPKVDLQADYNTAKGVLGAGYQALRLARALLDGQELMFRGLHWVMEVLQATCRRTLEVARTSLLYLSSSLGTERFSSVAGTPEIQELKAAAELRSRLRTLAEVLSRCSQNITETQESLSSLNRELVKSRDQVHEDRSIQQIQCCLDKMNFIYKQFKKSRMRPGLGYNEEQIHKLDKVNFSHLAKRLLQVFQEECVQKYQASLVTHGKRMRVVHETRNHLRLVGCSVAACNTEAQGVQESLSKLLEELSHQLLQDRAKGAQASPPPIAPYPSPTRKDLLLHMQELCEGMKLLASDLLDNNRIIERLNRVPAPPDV
Put plainly: Selectivity interaction (ActivX KiNativ screen (kinase selectivity in THP-1 cell lysates)) EUB0000639a IKBKE. The assay is classed as subcellular. As to conditions: lysate, at 5 µM.

Assay [6] deals with Serine/threonine-protein kinase MARK2 (Homo sapiens) (UniProt Q7KZI7). The description is as §1. Format: subcellular. To be noted: lysate, at 5 µM.
Assay [7] concerns the target Bromodomain adjacent to zinc finger domain protein 1A (Homo sapiens) (UniProt Q9NRL2). Put plainly: Selectivity interaction (Bromodomain panel (DSF asssay)) EUB0000270b BAZ1A.
In assay [8] the target is T3, Serine/threonine-protein kinase BRSK2 (Homo sapiens) (UniProt Q8IWQ3).
T3 sequence (whole entry): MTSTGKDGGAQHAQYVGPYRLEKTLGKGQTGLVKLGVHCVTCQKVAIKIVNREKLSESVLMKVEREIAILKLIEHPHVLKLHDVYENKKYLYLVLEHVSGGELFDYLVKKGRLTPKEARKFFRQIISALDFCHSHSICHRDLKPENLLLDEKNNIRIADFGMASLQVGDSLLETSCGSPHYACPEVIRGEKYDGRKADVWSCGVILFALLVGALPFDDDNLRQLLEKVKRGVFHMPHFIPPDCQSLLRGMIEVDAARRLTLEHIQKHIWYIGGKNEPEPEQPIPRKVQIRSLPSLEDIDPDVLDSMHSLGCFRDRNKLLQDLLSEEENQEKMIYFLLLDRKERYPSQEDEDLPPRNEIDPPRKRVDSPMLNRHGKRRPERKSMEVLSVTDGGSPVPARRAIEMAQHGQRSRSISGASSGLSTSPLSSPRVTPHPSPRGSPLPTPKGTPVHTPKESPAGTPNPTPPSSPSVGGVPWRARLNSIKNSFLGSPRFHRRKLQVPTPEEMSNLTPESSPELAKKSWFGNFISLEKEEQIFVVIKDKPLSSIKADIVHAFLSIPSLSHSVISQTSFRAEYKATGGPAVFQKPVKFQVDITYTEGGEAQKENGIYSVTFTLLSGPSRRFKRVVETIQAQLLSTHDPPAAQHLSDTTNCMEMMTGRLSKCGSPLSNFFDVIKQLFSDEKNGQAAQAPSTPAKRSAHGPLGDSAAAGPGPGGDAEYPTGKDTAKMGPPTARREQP
As to conditions: at 10 µM.

Molecules are shown by their SMILES.

Sequence of Serine/threonine-protein kinase MARK2 (Homo sapiens) (Q7KZI7 whole entry, the tested form may be a part): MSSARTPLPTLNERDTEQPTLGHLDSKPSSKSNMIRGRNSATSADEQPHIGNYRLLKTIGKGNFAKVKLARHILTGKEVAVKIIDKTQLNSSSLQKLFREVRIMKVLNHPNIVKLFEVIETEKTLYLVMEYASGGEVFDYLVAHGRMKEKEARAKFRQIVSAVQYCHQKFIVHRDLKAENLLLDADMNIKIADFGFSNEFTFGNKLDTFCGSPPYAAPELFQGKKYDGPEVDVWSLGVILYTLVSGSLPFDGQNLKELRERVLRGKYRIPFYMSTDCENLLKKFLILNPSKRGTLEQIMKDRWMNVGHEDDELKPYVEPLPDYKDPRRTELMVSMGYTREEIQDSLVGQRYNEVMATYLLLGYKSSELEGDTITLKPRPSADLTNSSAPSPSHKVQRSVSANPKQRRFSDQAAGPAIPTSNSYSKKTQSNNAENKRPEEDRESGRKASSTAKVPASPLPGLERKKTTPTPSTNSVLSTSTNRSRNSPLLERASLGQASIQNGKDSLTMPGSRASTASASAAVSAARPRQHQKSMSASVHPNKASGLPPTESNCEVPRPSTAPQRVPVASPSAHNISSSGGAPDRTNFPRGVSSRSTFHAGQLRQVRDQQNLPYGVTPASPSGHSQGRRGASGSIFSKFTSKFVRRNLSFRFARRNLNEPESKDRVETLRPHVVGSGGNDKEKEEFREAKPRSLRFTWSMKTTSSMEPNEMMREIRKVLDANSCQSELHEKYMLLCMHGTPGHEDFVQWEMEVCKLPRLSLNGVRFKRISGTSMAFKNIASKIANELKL
Sequence of Receptor-type tyrosine-protein kinase FLT3 (Homo sapiens), P36888 [UNDEFINED MUTATION] (P36888 whole entry, looked up, change not shown): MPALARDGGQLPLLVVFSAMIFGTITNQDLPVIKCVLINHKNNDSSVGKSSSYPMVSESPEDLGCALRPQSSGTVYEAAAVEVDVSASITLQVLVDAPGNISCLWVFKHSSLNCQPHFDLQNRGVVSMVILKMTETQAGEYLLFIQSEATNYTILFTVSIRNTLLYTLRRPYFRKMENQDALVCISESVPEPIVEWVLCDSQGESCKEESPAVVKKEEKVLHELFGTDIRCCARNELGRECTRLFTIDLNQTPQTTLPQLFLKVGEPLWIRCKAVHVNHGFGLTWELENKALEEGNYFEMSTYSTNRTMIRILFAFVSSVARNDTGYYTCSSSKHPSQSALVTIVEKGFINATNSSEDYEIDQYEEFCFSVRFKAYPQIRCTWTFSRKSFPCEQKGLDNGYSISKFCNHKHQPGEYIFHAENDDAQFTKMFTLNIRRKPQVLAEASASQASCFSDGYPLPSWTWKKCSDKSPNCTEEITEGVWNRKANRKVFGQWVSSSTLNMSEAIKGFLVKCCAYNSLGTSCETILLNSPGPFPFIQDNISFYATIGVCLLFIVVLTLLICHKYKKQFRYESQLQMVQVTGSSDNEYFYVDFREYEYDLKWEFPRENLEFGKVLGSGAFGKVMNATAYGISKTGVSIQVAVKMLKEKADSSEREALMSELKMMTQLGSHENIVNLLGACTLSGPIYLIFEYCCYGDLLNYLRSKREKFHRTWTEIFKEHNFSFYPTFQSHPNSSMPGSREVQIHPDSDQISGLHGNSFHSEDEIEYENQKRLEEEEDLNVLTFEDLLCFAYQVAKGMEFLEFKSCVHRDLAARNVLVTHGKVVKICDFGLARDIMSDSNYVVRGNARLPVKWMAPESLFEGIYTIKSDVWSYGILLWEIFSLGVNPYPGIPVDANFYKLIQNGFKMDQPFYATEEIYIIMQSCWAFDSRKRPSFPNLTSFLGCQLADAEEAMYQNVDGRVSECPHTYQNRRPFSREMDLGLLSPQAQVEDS
Sequence of MAP kinase-interacting serine/threonine-protein kinase 2 (Q9HBH9 whole entry, looked up): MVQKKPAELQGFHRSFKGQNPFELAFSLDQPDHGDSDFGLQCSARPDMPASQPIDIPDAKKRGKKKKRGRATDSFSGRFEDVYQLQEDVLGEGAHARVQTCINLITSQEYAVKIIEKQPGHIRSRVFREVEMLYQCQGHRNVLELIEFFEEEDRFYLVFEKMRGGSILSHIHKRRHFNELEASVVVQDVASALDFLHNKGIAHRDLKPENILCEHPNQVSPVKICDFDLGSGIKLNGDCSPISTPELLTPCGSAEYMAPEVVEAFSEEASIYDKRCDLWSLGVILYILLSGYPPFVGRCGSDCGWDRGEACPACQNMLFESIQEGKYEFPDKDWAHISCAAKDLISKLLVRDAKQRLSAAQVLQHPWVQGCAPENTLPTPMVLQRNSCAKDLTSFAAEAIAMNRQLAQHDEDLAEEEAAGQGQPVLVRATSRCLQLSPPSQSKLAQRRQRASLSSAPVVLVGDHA
Sequence of Bromodomain adjacent to zinc finger domain protein 1A (Homo sapiens) (Q9NRL2 whole entry, the tested form may be a part): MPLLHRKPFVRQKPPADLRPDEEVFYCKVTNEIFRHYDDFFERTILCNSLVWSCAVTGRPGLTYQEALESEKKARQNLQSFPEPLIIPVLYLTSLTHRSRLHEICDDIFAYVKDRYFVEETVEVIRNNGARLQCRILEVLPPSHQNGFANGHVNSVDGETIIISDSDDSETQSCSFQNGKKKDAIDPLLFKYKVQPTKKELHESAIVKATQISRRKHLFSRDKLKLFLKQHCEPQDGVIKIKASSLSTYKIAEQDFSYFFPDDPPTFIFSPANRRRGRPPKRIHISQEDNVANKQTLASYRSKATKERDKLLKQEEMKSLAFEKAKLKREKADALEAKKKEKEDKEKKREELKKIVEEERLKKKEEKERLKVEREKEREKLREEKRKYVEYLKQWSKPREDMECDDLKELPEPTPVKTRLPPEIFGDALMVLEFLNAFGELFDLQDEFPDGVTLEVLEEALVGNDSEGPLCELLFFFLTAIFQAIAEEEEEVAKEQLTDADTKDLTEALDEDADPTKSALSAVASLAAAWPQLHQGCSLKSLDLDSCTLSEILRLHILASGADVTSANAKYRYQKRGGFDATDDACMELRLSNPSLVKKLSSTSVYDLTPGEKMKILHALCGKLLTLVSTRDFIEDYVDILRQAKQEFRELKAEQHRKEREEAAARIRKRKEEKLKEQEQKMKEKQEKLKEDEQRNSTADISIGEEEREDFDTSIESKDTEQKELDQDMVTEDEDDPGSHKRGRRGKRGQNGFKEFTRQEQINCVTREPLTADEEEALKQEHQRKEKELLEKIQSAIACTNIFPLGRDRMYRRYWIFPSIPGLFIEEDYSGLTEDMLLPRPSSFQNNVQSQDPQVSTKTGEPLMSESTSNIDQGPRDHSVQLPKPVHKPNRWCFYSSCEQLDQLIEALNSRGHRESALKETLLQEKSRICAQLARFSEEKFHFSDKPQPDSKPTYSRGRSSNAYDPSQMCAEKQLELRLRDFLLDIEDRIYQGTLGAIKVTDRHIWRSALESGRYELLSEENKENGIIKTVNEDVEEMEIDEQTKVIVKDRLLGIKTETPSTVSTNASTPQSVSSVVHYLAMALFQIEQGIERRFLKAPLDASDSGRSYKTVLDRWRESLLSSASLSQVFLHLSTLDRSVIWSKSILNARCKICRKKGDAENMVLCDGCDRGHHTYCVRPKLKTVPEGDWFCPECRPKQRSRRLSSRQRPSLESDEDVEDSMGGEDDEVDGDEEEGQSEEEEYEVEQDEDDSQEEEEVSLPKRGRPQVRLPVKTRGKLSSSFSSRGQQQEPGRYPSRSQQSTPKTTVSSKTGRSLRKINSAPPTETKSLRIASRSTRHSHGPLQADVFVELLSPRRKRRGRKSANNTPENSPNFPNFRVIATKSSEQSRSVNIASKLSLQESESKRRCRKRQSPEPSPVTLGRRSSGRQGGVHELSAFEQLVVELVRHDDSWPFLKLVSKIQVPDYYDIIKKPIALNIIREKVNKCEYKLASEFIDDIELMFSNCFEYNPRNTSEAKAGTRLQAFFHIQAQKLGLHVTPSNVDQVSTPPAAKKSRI

`Nc1cnc(N2CCc3cc(S(=O)(=O)Nc4c(F)cc(Cl)cc4F)cc(N4CCCC4=O)c32)nc1` [TP-020n] yielded a % of control in assay [1] of 96%.

`N#Cc1cccc(-c2c[nH]c3ncnc(N4CCOCC4)c23)c1` registered a % of control in assay [2] of 99%.

With `CC[C@@H]1[C@H](F)C(=O)N[C@@H]1COc1nccc2cc(C(N)=O)c(OC)cc12` [ZIMLOVISERTIB], the % of inhibition in assay [3] is 4.3%; in assay [4], 86%; in assay [5], 26.2%; in assay [6], 51.5%.

For `Cc1cc(CN)cc(C)c1-c1ncn(C)c1-c1cncn1C`, the dTM in assay [7] was -1.36 K.

Turning to `COCC(=O)NC/C=C/c1ccc2ncnc(Nc3ccc(Oc4ccc(C)nc4)c(C)c3)c2c1` [CP-724714], the % of control in assay [8] is 100%.
